# Assay results from PubChem BioAssay (NCI).
# Values joined by “and” are separate entries in the source; they are usually repeats but may differ in a detail not shown here. Identical values can stand only once.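 1) Cells in 96-well plates. 2) Compound, 48 h, 5 concentrations. 3) Linear interpolation between surrounding doses. 4) Unreached endpoint = highest concentration. The concentration for 50% growth inhibition is given as GI50. Definition used: TGI = concentration required for complete inhibition of growth.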
# Key:
# Assay in all cases: growth of human tumour cells (NCI), 48 h
# HCT-116 colon = test system: HCT-116 colon
# HT29 colon = test system: HT29 colon
# IGROV1 ovarian = test system: IGROV1 ovarian
# OVCAR-4 ovarian = test system: OVCAR-4 ovarian
# SF-268 CNS = test system: SF-268 CNS
# SK-MEL-28 melanoma = test system: SK-MEL-28 melanoma
# SK-OV-3 ovarian = test system: SK-OV-3 ovarian
# SNB-19 CNS = test system: SNB-19 CNS
# TK-10 renal = test system: TK-10 renal
# UACC-257 melanoma = test system: UACC-257 melanoma
SMILES,TGI (HCT-116 colon) [µM],TGI (HT29 colon) [µM],TGI (IGROV1 ovarian) [µM],TGI (OVCAR-4 ovarian) [µM],TGI (SF-268 CNS) [µM],TGI (SK-MEL-28 melanoma) [µM],TGI (SK-OV-3 ovarian) [µM],TGI (SNB-19 CNS) [µM],TGI (TK-10 renal) [µM],TGI (UACC-257 melanoma) [µM],GI50 (HCT-116 colon),GI50 (HT29 colon),GI50 (IGROV1 ovarian),GI50 (OVCAR-4 ovarian) [µM],GI50 (SF-268 CNS) [µM],GI50 (SK-MEL-28 melanoma),GI50 (SK-OV-3 ovarian),GI50 (SNB-19 CNS),GI50 (TK-10 renal) [µM],GI50 (UACC-257 melanoma) [µM]
NC1N=Nc2ccccc21 (stereo not drawn),> 100,> 100,> 100,> 100,> 100,> 100,> 100,> 100,> 100,> 100,–,–,–,–,–,–,–,–,–,–
Cc1ccc([Se](=C(C(=O)c2ccccc2)C(=O)c2ccccc2)c2ccc(C)cc2)cc1,> 100,35.2,78.5,50.1,> 100,> 100,> 100,> 100,94.6,53.1,–,–,–,–,–,–,–,–,–,–
O=C(Cn1c(C(=O)c2ccc(Cl)cc2)nc(-c2ccc(Cl)cc2)c1-c1ccc(Cl)cc1)c1ccccc1,> 100,> 100,> 100,> 100,> 100,> 100,> 100,> 100,> 100,> 100,> 100 µM,> 100 µM,> 100 µM,> 100,> 100,> 100 µM,> 100 µM,> 100 µM,> 100,> 100
COc1cccc(C=O)c1C(=O)c1cc(O)ccc1O,39.2,> 76.3,> 62.5,35.7,> 55.4,> 61.4,> 100,> 100,> 56.7,46.3,–,–,–,–,–,–,–,–,–,–
N#CC(C#N)=NNc1ccc2cn[nH]c2c1,44.7,> 100,> 100,> 100,> 100,> 100,> 100,> 100,76.1,60.2,–,–,–,–,–,–,–,–,–,–
O=C(CN1CCN(Cc2ccccc2Cl)CC1)NC1CC(=O)c2c(Br)sc(Br)c21 (stereo not drawn),32.9,32.2,34.5,34.4,36.7,32.2,> 100,33.1,97.1,44,17.3 µM,18 µM,18.2 µM,18.9,19,18.1 µM,54.1 µM,18.6 µM,44.3,22.3
CC1CCC2C(C)C(=O)OC3OC4(C)CCC1C32OO4 (stereo not drawn),> 100,> 100,> 100,> 100,> 100,> 100,> 100,> 100,> 100,> 100,–,> 100 µM,–,–,–,> 100 µM,–,> 100 µM,> 100,> 100
O=[N+]([O-])c1cc(-c2nc(=S)[nH][nH]2)ccc1O,> 100,> 100,> 100,> 100,> 100,> 100,> 100,> 100,> 100,> 100,–,–,–,–,–,–,–,–,–,–
O=C([O][Hg][c]1ccccc1)c1ccccc1,2.99,9.82,3.58,6.22,4.78,2.93,11.9,8.7,2.95,3.03,1.45 µM,2.94 µM,1.48 µM,1.36,1.89,1.45 µM,4.03 µM,3.32 µM,1.6,1.38
Nc1nc(N)c(CCCCc2ccccc2)c(C=O)n1,27.9,26.5,38.1,70.6,43.3,32.3,95.5,38.3,93,33.3,–,–,–,–,–,–,–,–,–,–
COC(=O)[C@H]1COC(=S)N1C(=O)[C@@H](C)[C@H](O)C(C)C,> 100,> 100,> 100,> 100,> 100,> 100,> 100,> 100,> 100,> 100,–,–,–,–,–,–,–,–,–,–
N#CC1C[C@@H]2CC3(CCC2CN1C(=O)c1ccccc1)OCCO3 (stereo partly drawn),> 100,> 100,> 100,> 100,> 100,> 100,> 100,> 100,> 100,> 100,–,–,–,–,–,–,–,–,–,–
Fc1cc(F)c(F)c(S)c1F,> 100,> 100,> 100,> 100,> 100,> 100,> 100,> 100,> 100,> 100,–,–,–,–,–,–,–,–,–,–
Cc1cc(=O)[nH]c(CNC(=O)c2ccc3ccccc3c2)n1,> 100,> 100,> 100,> 100,> 100,> 100,> 100,> 100,> 100,> 100,–,–,–,–,–,–,–,–,–,–
Cc1ccccc1C1=C(c2cn(C)c3ccccc23)C(=O)NC1=O,> 25,> 25,> 25,> 25,> 25,> 25,> 25,> 25,> 25,> 25,7.77 µM,12.1 µM,> 25 µM,> 21.1,> 25,> 25 µM,> 25 µM,> 25 µM,> 25,> 25
CC1(C)CC(=O)C=C(/C=C/Sc2c(Cl)c(Cl)nc(Cl)c2Cl)C1,13.3,47.1,84.9,57.9,32.4,31.9,34.8,29.5,35.5,31.8,3.85 µM,16.5 µM,4.75 µM,20.3,13,15.5 µM,19.9 µM,15.9 µM,19.6,15.6

SMILES,TGI (HCT-116 colon) [µM],TGI (HT29 colon) [µM],TGI (IGROV1 ovarian) [µM],TGI (OVCAR-4 ovarian) [µM],TGI (SF-268 CNS) [µM],TGI (SK-MEL-28 melanoma) [µM],TGI (SK-OV-3 ovarian) [µM],TGI (SNB-19 CNS) [µM],TGI (TK-10 renal) [µM],TGI (UACC-257 melanoma) [µM],GI50 (HCT-116 colon),GI50 (HT29 colon),GI50 (IGROV1 ovarian),GI50 (OVCAR-4 ovarian) [µM],GI50 (SF-268 CNS) [µM],GI50 (SK-MEL-28 melanoma),GI50 (SK-OV-3 ovarian),GI50 (SNB-19 CNS),GI50 (TK-10 renal) [µM],GI50 (UACC-257 melanoma) [µM]
CCc1ccccc1NC(=O)C(C#N)C1=C(Cl)C(=O)c2ccccc2C1=O (stereo not drawn),28.8,37.9,32.8,27.6,49.8,36.4,> 100,72.3,33.7,31.8,–,–,–,–,–,–,–,–,–,–
Cc1ccc(-c2nc3nc(-c4ccc(F)cc4)nc(N4CCNCC4)c3o2)cc1,3.32,3.93,3.16,3.5,4.35,28.7,34.4,19.8,6.38,37.6,1.7 µM,1.86 µM,1.68 µM,1.89,1.93,14.9 µM,18.7 µM,5.97 µM,2.07,18.4
CC1=C/C=C/C(=O)O[C@@H]([C@H](C)[C@H](O)[C@@H](C)NC(=O)C(C)C)[C@H](C)/C=C/C(C)=C/[C@H]2C=CCC[C@@]2(C)\C=C\1,6.3,6.85,10.7,21.9,17.7,8.48,> 42.3,25.9,19,13.3,0.0446 µM and 0.0232 µM,0.233 µM and 0.0595 µM,0.603 µM and 0.189 µM,6.47,–,0.469 µM and 0.376 µM,3.09 µM and 0.872 µM,2.01 µM and 0.736 µM,6.12,–
O=C(Cc1ccccc1[N+](=O)[O-])C(CO)c1ccccc1[N+](=O)[O-] (stereo not drawn),> 100,> 100,> 100,> 100,> 100,> 100,> 100,> 100,> 100,> 100,–,–,–,–,–,–,–,–,–,–
N#CC(C#N)=CNCCN1CCN(C=C(C#N)C#N)CC1,> 100,> 100,> 100,> 100,> 100,> 100,> 100,> 100,> 100,> 100,–,–,–,–,–,–,–,–,–,–
O=C(COc1ccccc1Cl)N1N=C(c2ccccc2)CC1(O)c1ccccc1 (stereo not drawn),51.3,30.7,55.7,23.4,> 100,31.7,47.7,45.4,49.2,45.2,–,–,–,–,–,–,–,–,–,–
N#CCCN(CCC#N)c1ccc(/C=C(/NC(=O)c2cc([N+](=O)[O-])ccc2Cl)C(=O)NN)cc1,> 100,> 100,> 100,> 100,> 100,> 100,> 100,> 100,> 100,> 100,–,–,–,–,–,–,–,–,–,–
C[C@H](c1ccc(F)cc1CCCC(=O)O)N(c1cc(F)ccc1F)S(=O)(=O)c1ccc(Cl)cc1,47.1,> 100,> 92.4,> 89.9,> 100,65.5,> 100,> 100,> 100,> 100,19.4 µM,35.3 µM,31.7 µM,26.8,34.5,22.1 µM,42.3 µM,27.9 µM,55.3,26.9
ClCCCSSCCCCl,> 90.8,> 69.1,> 100,> 90.7,> 100,> 100,> 100,> 100,> 100,> 100,–,–,–,–,–,–,–,–,–,–
C[C@@H](N)COc1ccc(-c2cnc3ccc(N[C@H](C)c4cccc(F)c4)nn23)cc1,3.07,3.82,6.23,11.9,6.38,3.07,16.9,11.6,8.22,3.11,1.46 µM,1.4 µM,2.18 µM,2.49,1.85,1.64 µM,5.05 µM,3 µM,1.75,1.62
CS(=O)(=O)N1CCC(n2c(=O)c(Oc3ccc(F)cc3F)cc3cnc(NC4CCOCC4)nc32)CC1,> 25,> 25,> 25,> 25,> 25,> 25,> 25,> 25,> 25,> 25,> 25 µM,> 25 µM,> 25 µM,> 25,> 25,> 25 µM,> 17.5 µM,> 25 µM,19.9,> 25
COc1cc2c(NCCCCCO)ncnc2c(OC)c1OC,> 100,> 100,> 100,> 100,> 100,> 100,> 100,> 100,> 100,> 100,–,–,–,–,–,–,–,–,–,–
CN1CCN(C(=O)[C@@]2(C)CC[C@]3(C)CC[C@]4(C)C(=CC[C@@H]5[C@@]6(C)CCC(=O)NC(C)(C)[C@@H]6CC[C@]54C)[C@@H]3C2)CC1,2.45,3.35,3.77,13,14.4,2.97,3.87,3.56,3.42,4.72,1.13 µM,1.5 µM,1.77 µM,2.94,3.04,1.56 µM,1.84 µM,1.81 µM,1.8,2.1
COC(=O)C1=COC2OC3C(C(C)O)C(=O)OC34C=CC1C24 (stereo not drawn),> 100,> 100,> 100,> 100,> 100,> 100,> 100,> 100,> 100,> 100,–,–,–,–,–,–,–,–,–,–
COc1cc2c3c(n(CCCN4CCNCC4)c(=O)c2cc1OC)-c1cc2c(cc1C3=O)OCO2,2.42,29.8,20.7,12.4,8.49,19.6,24.8,12.4,2.66,15.5,0.281 µM,0.942 µM,2.03 µM,4.05,0.795,4.11 µM,3.35 µM,0.835 µM,0.762,7.08
CCCCCCC1N=C(N)N=C(N)N1c1cccc(Cl)c1 (stereo not drawn),14.3,7.23,5.88,38.2,11.5,17.4,20.9,8.58,25.9,29.5,0.0747 µM,0.0514 µM,0.199 µM,1.76,0.0591,2.34 µM,1.22 µM,0.255 µM,3.66,6.37
